Experiments:
[1] = system: human bladder cancer cell lines; assay: Proliferation (MTT) assay of BGJ398 on a panel of 30 human bladder cancer cell lines; assay type: cell-based; settings: lines SW780, UC1, RT112, RT4 and UC14; FIG. 6
Text: FIG. 6. Proliferation (MTT) assay testing effect of BGJ398 on human bladder cancer cell lines.
To test this possibility, the inventors examined the effects of the FGFR-selective inhibitor BGJ398 on proliferation in the inventor's panel of 30 human bladder cancer cell lines using MTT assays.

[2] = system: muscle-invasive bladder cancer; assay: Pathological response to neoadjuvant chemotherapy at cystectomy by cluster, discovery cohort; assay type: in vivo, human; settings: cluster 2 (p53-like); FIG. 1D
Text: Tumors and clinical data were obtained from the MD Anderson genitourinary cancers research database. Fresh frozen tissues were obtained from the SPORE Tissue Core. Of note, all patients had previously signed informed consent allowing collection of their tissue and of their clinical data in the genitourinary research database. […] Patients were classified as muscle invasive for tumor growth into the muscularis propria; otherwise, they were classified as non-muscle invasive. Total RNA from human specimens were isolated using mirVana miRNA isolation kit (Ambion, Inc).
Presurgical (neoadjuvant) cisplatin-based chemotherapy is the current standard-of-care for high-risk muscle-invasive bladder cancer. […] To examine the relationship between the 3 molecular subsets and chemotherapy sensitivity, the inventors identified 18 patients within their discovery cohort that had received neoadjuvant chemotherapy and compared the pathological response rates within each cluster. Strikingly, whereas over half of the basal/cluster 1 (3/5) and luminal/cluster 3 (4/6) tumors responded to chemotherapy, none (0/7) of the p53-like cluster 2 tumors was downstaged in this initial cohort (Table 3). […] Gene expression profiling classified 3 of the tumors as basal, 4 as luminal, and 9 as p53-like (FIG. 7). […]

Row | Compound | drug sensitivity of proliferation (MTT) [1] | observed cisplatin resistance [2]
1 | CCN1CCN(c2ccc(Nc3cc(N(C)C(=O)Nc4c(Cl)c(OC)cc(OC)c4Cl)ncn3)cc2)CC1 [BGJ398] | most drug-sensitive | 
2 | N.N.[Cl][Pt][Cl] [cisplatin] |  | resistance
